Assay [1] has as its target T1, PDZ1 domain of MDA-9/Syntenin (PDZ12) (Homo sapiens, UniProt O00560).
T1 construct: HSQC spectrum of 50 μM PDZ12 caused by compound at 1:1 molar ratio
T1 sequence (O00560 110-273 limits assumed): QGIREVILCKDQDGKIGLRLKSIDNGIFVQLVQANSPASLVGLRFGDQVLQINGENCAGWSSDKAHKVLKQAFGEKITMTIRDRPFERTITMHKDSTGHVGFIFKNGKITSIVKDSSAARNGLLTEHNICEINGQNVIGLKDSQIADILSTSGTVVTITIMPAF
Description: [15N,1H] HSQC chemical shift change ranking of compound affinity. It counts as binding. To be noted: chemical shift changes (DPPM) of backbone amide of residue 147, 50 μM PDZ12, compound at 1:1 molar ratio. An excerpt:
*Rank ordering of compound affinity for PDZ1 were estimated based on chemical shift changes (DPPM) of the backbone amide of residue 147 on the [^15N,^1H] […] Kd values reported in parentheses were obtained by NMR titration experiments following the chemical shifts of the backbone amide of residue 147 at different ligand concentrations.

Another assay concerns DU-145 and PC3-ML PCSCs. Description: Live/Dead chemosensitivity of PCSCs with STAT3 inhibitor. It counts as cell-based, human. To be noted: STAT3 inhibitor with docetaxel or trichostatin-A. The method, then:
Live/Dead cell imaging was performed to assess fluorescence based cell viability. Staining was performed as per the manufacturer's directions (Invitrogen™), which was followed by imaging utilizing laser confocal microscopy (Leica©). The images were analyzed by Zeiss© ZEN software. Docetaxel, STATTIC and Trichostatin-A (TSA) were obtained from Sigma. The PCSCs were serum-starved for 24 h and then treated with the drugs for 48 h at a 10 μM concentration (unless mentioned otherwise) prior to assessing the sensitivity of PCSCs to these drugs. DMSO treated cells were used as control. In vitro PDZ1i treatments occurred at 25 μM concentration. In vivo PDZ1i treatments occurred at 25 mg/kg body weight of the mice, 3 times a week for a month.

As for `Cc1cc(=O)n2nc(C(=O)Nc3cc(Cl)c(O)c(Cl)c3)nc2[nH]1` [112G1], in assay [1], the Binding affinity ranking is recorded as 6 (6 for DPPM above 0.1).
For the molecule `Cc1cc(NC(=O)c2nc3[nH]c4c(c(=O)n3n2)CCC4)c(C)cc1NC(=O)CCc1nnc(-c2ccccc2)o1` [113B7], the Binding affinity ranking in assay [1] was 4 (4 for DPPM 0.06-0.08).
The same measure, in the same setting: the same measure for `O=c1[nH]c2sc3c(c2c2ncnn12)CCCC3` [cmpd6]: 1 (1 for DPPM 0.00-0.02).
`O=[N+]([O-])c1ccc2c(c1)S(=O)(=O)C=C2` [STATTIC]: the “effect on PCSC chemosensitivity” value with DU-145 and PC3-ML PCSCs was “caused chemosensitivity to both docetaxel and trichostatin-A”.
`O=C(Nc1ccc(O)cc1)c1nc2[nH]c3c(c(=O)n2n1)CCC3` [112E12]: the Binding affinity ranking in assay [1] was 1 (1 for DPPM 0.00-0.02).
Same read-out and setting: as for `COc1cccc(NC(=O)c2nc3[nH]c(C)cc(=O)n3n2)c1` [cmpd8], the figure is 3 (3 for DPPM 0.04-0.06).
Regarding `Cc1cc(=O)n2nc(C(=O)Nc3ccc4c(c3)OCCO4)nc2[nH]1` [cmpd7], the Binding affinity ranking in assay [1] was 2 (2 for DPPM 0.02-0.04).
Same read-out and setting: as for `Cc1cc(NC(=O)c2nc3[nH]c4c(c(=O)n3n2)CCC4)c(C)cc1NC(=O)CCc1nnc(-c2cccc(C(F)(F)F)c2)o1` [112H9], the figure is 2 (2 for DPPM 0.02-0.04); as for `Cc1cc(=O)n2nc(C(=O)Nc3cccc(Cl)c3)nc2[nH]1` [cmpd10], 4 (4 for DPPM 0.06-0.08); as for `Cc1cc(=O)n2nc(SCc3ccccc3)nc2[nH]1` [cmpd4], 4 (4 for DPPM 0.06-0.08).
On the same count and under the same terms, the same measure for `Cc1cc(=O)n2nc(COc3ccccc3)nc2[nH]1` [30A9]: 4 (4 for DPPM 0.06-0.08); for `Cc1cc(=O)n2nc(C(=O)Nc3cc(Cl)c(N)cc3Cl)nc2[nH]1` [112G4]: 6 (6 for DPPM above 0.1); for `CCCc1cc(=O)n2nc(COc3ccccc3)nc2[nH]1` [cmpd14]: 1 (1 for DPPM 0.00-0.02).
The same measure, in the same setting: the same measure for `Cc1cc(O)n2nc(C(=O)Nc3ccc(O)cc3)nc2n1` [112F1]: 1 (1 for DPPM 0.00-0.02); for `Cc1c(C)c(NC(=O)c2nc3[nH]c4c(c(=O)n3n2)CCC4)c(C)c(C)c1N` [113B8]: 5 (5 for DPPM 0.08-0.1).
As for `Cc1[nH]c2nc(C(=O)NCc3ccccc3)nn2c(=O)c1C` [cmpd5], in assay [1], the Binding affinity ranking was 2 (2 for DPPM 0.02-0.04).
On the same count and under the same terms, as for `COc1ccc(Br)c(-c2nnc(CCC(=O)Nc3cc(C)c(NC(=O)c4nc5[nH]c6c(c(=O)n5n4)CCC6)cc3C)o2)c1` [113B12], the figure is 1 (1 for DPPM 0.00-0.02); as for `O=c1c2c([nH]c3nc(NCc4cccs4)nn13)CCC2` [cmpd3], 1 (1 for DPPM 0.00-0.02); as for `Cc1cc(=O)n2nc(C(=O)Nc3ccc(O)cc3)nc2[nH]1` [112D11], 2 (2 for DPPM 0.02-0.04).
On the same count and under the same terms, the same measure for `Cc1cc(=O)n2nc(C(=O)Nc3ccc(N)cc3)nc2[nH]1` [112E7]: 1 (1 for DPPM 0.00-0.02); for `O=C(Nc1ccc(O)c(F)c1)c1nc2[nH]c3c(c(=O)n2n1)CCC3` [112F12]: 2 (2 for DPPM 0.02-0.04).
On the same count and under the same terms, as for `O=C(Nc1ccc(O)c(Cl)c1)c1nc2[nH]c3c(c(=O)n2n1)CCC3` [112F10], the figure is 4 (4 for DPPM 0.06-0.08); as for `Cc1cc(=O)n2nc(C(=O)Nc3ccc(O)c(F)c3)nc2[nH]1` [112G2], 4 (4 for DPPM 0.06-0.08).
For `O=c1c2c([nH]c3nc(COc4ccccc4)nn13)CCC2` [cmpd11], the Binding affinity ranking in assay [1] is on record as 5 (5 for DPPM 0.08-0.1).
The same measure, in the same setting: as for `Nc1ccc(NC(=O)c2nc3[nH]c4c(c(=O)n3n2)CCC4)cc1` [112G11], the figure is 2 (2 for DPPM 0.02-0.04); as for `Cc1cc(=O)n2nc(C(=O)Nc3ccc4c(c3)OCO4)nc2[nH]1` [cmpd9], 3 (3 for DPPM 0.04-0.06); as for `Cc1cc(=O)n2nc(NCc3ccccc3)nc2[nH]1` [cmpd1], 2 (2 for DPPM 0.02-0.04).
In the case of `Cc1cc(NC(=O)c2nc3[nH]c4c(c(=O)n3n2)CCC4)c(C)cc1NC(=O)CCc1nnc(-c2ccsc2)o1` [113B11], in assay [1], the Binding affinity ranking is 3 (3 for DPPM 0.04-0.06).
Still for that read-out and setting: the same measure for `Cc1cc(NC(=O)c2nc3[nH]c4c(c(=O)n3n2)CCC4)c(C)cc1NC(=O)Cc1ccc(-c2ccccc2)cc1` [113B9]: “N.B”.
On the same count and under the same terms, as for `Cc1cc(=O)n2nc(CCc3ccccc3)nc2[nH]1` [cmpd2], the figure is 3 (3 for DPPM 0.04-0.06); as for `O=c1c2c([nH]c3nc(CCc4ccccc4)nn13)CCC2` [cmpd13], 3 (3 for DPPM 0.04-0.06).

The record behind these values is patent US20230066830A1, “METHODS AND COMPOSITIONS FOR INDUCING APOPTOSIS IN CANCER STEM CELLS” (VIRGINIA COMMONWEALTH UNIVERSITY, priority 2019, published 2023).
